Measurements taken from ChEMBL document CHEMBL5625167, “In vitro bioevaluation and docking study of dihydrosphingosine and ethambutol analogues against sensitive and multi-drug resistant Mycobacterium tuberculosis” (Eur J Med Chem, 2023).
≈ marks a conversion by molar mass, not a printed value. Where “and” joins values, the source holds several entries; their conditions need not be identical. Equal values may be shown once.

Experiments:
[1] = test system: Mycobacterium tuberculosis; assay: (§1) Antimycobacterial activity against isoniazid, rifampicin, ethambutol and pyrazinamide sensitive Mycobacterium tuberculosis H37Rv ATCC 25618 assessed as inhibition of bacterial growth incubated for 7 days by resazurin dye based colorimetric method analysis; format: functional; conditions: H37Rv ATCC 25618, 168 h, time 7 day
[2] = test system: Mycobacterium tuberculosis; assay: as §1, with “Potency index, ratio of ethambutol MIC to test compound MIC for antimycobacterial” for “Antimycobacterial”; format: functional; conditions: time 7 day
[3] = Cytotoxicity against African green monkey Vero cells assessed as reduction in cell population incubated for 48 hrs by MTT assay; format: toxicity, cell-based; conditions: chlorocebus sabaeus
[4] = Cytotoxicity against mouse J774.A1 cells assessed as reduction in cell population incubated for 48 hrs by MTT assay; format: toxicity, cell-based
[5] = test system: Mycobacterium tuberculosis; assay: Antimycobacterial activity against Mycobacterium tuberculosis H37Rv ATCC 25618 assessed as fractional inhibitory concentration incubated for 7 days in presence of 2-aminoheptadecan-1-ol by resazurin dye based two-dimensional micro dilution checkerboard assay; format: functional; conditions: time 7 day
[6] = test system: Mycobacterium tuberculosis; assay: Antimycobacterial activity against Mycobacterium tuberculosis H37Rv ATCC 25618 incubated for 7 days by resazurin dye based two-dimensional micro dilution checkerboard assay in presence of 1-(benzyloxy)heptadecan-2-amine; format: functional; conditions: time 7 day
[7] = test system: Mycobacterium tuberculosis; assay: Antimycobacterial activity against Mycobacterium tuberculosis H37Rv ATCC 25618 incubated for 7 days by resazurin dye based two-dimensional micro dilution checkerboard assay in presence of 1-((3,4,5-trimethoxybenzyl)oxy)heptadecan-2-amine; format: functional; conditions: time 7 day
[8] = test system: Mycolicibacterium smegmatis; assay: Antimycobacterial activity against Mycobacterium smegmatis ATCC607 incubated for 24 hrs by resazurin dye based broth microdilution method; format: functional
Staphylococcus aureus = assay: Antibacterial activity against Staphylococcus aureus ATCC 25923 incubated for 18 hrs by resazurin dye based broth microdilution method; format: functional
Klebsiella pneumoniae = assay: Antibacterial activity against Klebsiella pneumoniae ATCC 13883 incubated for 18 hrs by resazurin dye based broth microdilution method; format: functional
[9] = Cytotoxicity against human HepG2 cells assessed as reduction in cell population incubated for 48 hrs by MTT assay; format: toxicity, cell-based

SMILES | MIC [1] | Ratio [2] | CC50 at 48 h [3] | CC50 at 48 h [4] | FIC [5] | FIC [6] | FIC [7] | MIC [8] | MIC (Staphylococcus aureus) | MIC (Klebsiella pneumoniae) | CC50 at 48 h [9]
CCCCCCCCCCCCCCCC(CO)NCC (configuration not stated) | 16 µM (≈ 4.79 µg/mL) | 23 | 27.7 µM | 22.8 µM | – | – | – | – | – | – | –
CCCCCCCCCCCCCCCC(CNCC(=O)OCC)NC(=O)OC(C)(C)C (configuration not stated) | 32 µM (≈ 14.6 µg/mL) | 11 | 39 µM | 27.9 µM | – | – | – | – | – | – | –
C[C@H]1COc2c(N3CCN(C)CC3)c(F)cc3c(=O)c(C(=O)O)cn1c23 [LEVOFLOXACIN ANHYDROUS] | 0.35 µM and 0.13 µg/mL | – | – | – | 0.031 | 0.5 | 0.5 | – | – | – | –
CCCCCCCCCCCCCCCC(N)CN (configuration not stated) | > 64 µM | <5.6 | 192 µM | 217 µM | – | – | – | 512 µM (≈ 138 µg/mL) | > 512 µM | > 512 µM | –
CCCCCCCCCCCCCCCCCCCC(N)COCc1ccccc1 (configuration not stated) | 32 µM (≈ 13.4 µg/mL) | 11 | 126 µM | 23 µM | – | – | – | 256 µM (≈ 107 µg/mL) | > 512 µM | > 512 µM | –
CCCCc1ccc(CCCCCCCC(CO)NC(=O)OC(C)(C)C)cc1 (configuration not stated) | 32 µM (≈ 12.5 µg/mL) | 11 | 28.3 µM | 12.9 µM | – | – | – | – | – | – | –
CCCCCCCCCCCCCCCC(CO)N(CC)CC (configuration not stated) | 4 µM (≈ 1.31 µg/mL) | 90 | 25.1 µM | 23.3 µM | – | – | – | – | – | – | –
CCCCCCCCCCCCCCCCCC(CN)NC(=O)OC(C)(C)C (configuration not stated) | 16 µM (≈ 6.38 µg/mL) | 23 | 17.7 µM | 30.5 µM | – | – | – | 8 µM (≈ 3.19 µg/mL) | 16 µM (≈ 6.38 µg/mL) | > 512 µM | 115 µM
CC(C)(O/N=C(\C(=O)N[C@@H]1C(=O)N2C(C(=O)[O-])=C(C[n+]3ccccc3)CS[C@H]12)c1csc(N)n1)C(=O)O [CEFTAZIDIME] | – | – | – | – | – | – | – | – | – | 0.5 µM (≈ 0.273 µg/mL) | –
CCCCCCCCCCCCCCCC(CNCCCCCC)NC(=O)OC(C)(C)C (configuration not stated) | 8 µM (≈ 3.64 µg/mL) | 45 | 22.9 µM | 20.8 µM | – | – | – | 128 µM (≈ 58.2 µg/mL) | 256 µM (≈ 116 µg/mL) | > 512 µM | 86.8 µM
CCCCCCCCCCCCCCCC(COCc1ccccc1)NCCCCCC (configuration not stated) | 64 µM (≈ 28.5 µg/mL) | 6 | 54 µM | 54.6 µM | – | – | – | – | – | – | –
CCCCCCCCCCCCCCCCCC(N)CO (configuration not stated) | 8 µM (≈ 2.4 µg/mL) | 45 | 53.2 µM | 9.65 µM | – | – | – | 256 µM (≈ 76.7 µg/mL) | 256 µM (≈ 76.7 µg/mL) | > 512 µM | 200 µM
CCCCCCCCCCCC(CO)NCC (configuration not stated) | > 64 µM | >5.6 | 37.3 µM | 10.5 µM | – | – | – | – | – | – | –
CCCCCCCCCCCC(N)CO (configuration not stated) | 64 µM (≈ 13.8 µg/mL) | 6 | 40.8 µM | 2.35 µM | – | – | – | – | – | – | –
CCCCCCCCCCCC(CO)NCCCC (configuration not stated) | 32 µM (≈ 8.69 µg/mL) | 11 | 26 µM | 21.4 µM | – | – | – | – | – | – | –
CCCCCCCCCCCCCCCCCC(N)COCc1ccccc1 (configuration not stated) | 64 µM (≈ 24.9 µg/mL) | 6 | 138 µM | 93.3 µM | – | – | – | > 512 µM | > 512 µM | > 512 µM | –
CCCCCCCCCCCCCCCCCC(COCc1ccccc1)NCCCCCC (configuration not stated) | 64 µM (≈ 30.3 µg/mL) | 6 | 120 µM | 118 µM | – | – | – | > 512 µM | > 512 µM | > 512 µM | –
CCCCc1ccc(CCCCCCCC(N)CO)cc1 (configuration not stated) | 4 µM (≈ 1.17 µg/mL) | 90 | 21.2 µM | 10.6 µM | – | – | – | – | – | – | 25.4 µM
CCCCCCCCCCCC(CNCC)NC(=O)OC(C)(C)C (configuration not stated) | 64 µM (≈ 21.9 µg/mL) | 6 | 32.3 µM | 20.9 µM | – | – | – | – | – | – | –
CCCCCCCCCCCCCCCC(N)CNCC (configuration not stated) | 32 µM (≈ 9.55 µg/mL) | 11 | 40.1 µM | 25.6 µM | – | – | – | – | – | – | –
CCCCCCCCCCCC(CO)N(CC)CC (configuration not stated) | 64 µM (≈ 17.4 µg/mL) | 6 | 36.2 µM | 17.6 µM | – | – | – | – | – | – | –
Cc1onc(-c2ccccc2)c1C(=O)N[C@@H]1C(=O)N2[C@@H]1SC(C)(C)[C@@H]2C(=O)O [OXACILLIN] | – | – | – | – | – | – | – | – | 0.25 µM (≈ 0.1 µg/mL) | – | –
